Test results from ChEMBL document CHEMBL4507276 (2021).

Assays:
[1] = target: D(3) dopamine receptor (Homo sapiens) (UniProt P35462); experiment: D3/H Cerep selectivity data (BI); conditions: Compound concentration 20.0 uM
[2] = target: Kappa-type opioid receptor (Rattus norvegicus) (UniProt P34975); experiment: KAPPA/R Cerep selectivity data (BI); conditions: Compound concentration 20.0 uM
[3] = target: cGMP-dependent 3',5'-cyclic phosphodiesterase (Homo sapiens) (UniProt O00408); experiment: PDE2A1 Cerep selectivity data (BI); conditions: Compound concentration 20.0 uM
[4] = target: L-type Ca2+ channel (DHP site), Cav1.2 alpha-1C (Rattus norvegicus, UniProt P22002); experiment: CA+/DHPSI/RA Eurofins-Panlabs selectivity data (BI); conditions: compound concentration 10 uM, read-out: % Ctrl
Chain of L-type Ca2+ channel (DHP site), Cav1.2 alpha-1C (P22002 whole entry): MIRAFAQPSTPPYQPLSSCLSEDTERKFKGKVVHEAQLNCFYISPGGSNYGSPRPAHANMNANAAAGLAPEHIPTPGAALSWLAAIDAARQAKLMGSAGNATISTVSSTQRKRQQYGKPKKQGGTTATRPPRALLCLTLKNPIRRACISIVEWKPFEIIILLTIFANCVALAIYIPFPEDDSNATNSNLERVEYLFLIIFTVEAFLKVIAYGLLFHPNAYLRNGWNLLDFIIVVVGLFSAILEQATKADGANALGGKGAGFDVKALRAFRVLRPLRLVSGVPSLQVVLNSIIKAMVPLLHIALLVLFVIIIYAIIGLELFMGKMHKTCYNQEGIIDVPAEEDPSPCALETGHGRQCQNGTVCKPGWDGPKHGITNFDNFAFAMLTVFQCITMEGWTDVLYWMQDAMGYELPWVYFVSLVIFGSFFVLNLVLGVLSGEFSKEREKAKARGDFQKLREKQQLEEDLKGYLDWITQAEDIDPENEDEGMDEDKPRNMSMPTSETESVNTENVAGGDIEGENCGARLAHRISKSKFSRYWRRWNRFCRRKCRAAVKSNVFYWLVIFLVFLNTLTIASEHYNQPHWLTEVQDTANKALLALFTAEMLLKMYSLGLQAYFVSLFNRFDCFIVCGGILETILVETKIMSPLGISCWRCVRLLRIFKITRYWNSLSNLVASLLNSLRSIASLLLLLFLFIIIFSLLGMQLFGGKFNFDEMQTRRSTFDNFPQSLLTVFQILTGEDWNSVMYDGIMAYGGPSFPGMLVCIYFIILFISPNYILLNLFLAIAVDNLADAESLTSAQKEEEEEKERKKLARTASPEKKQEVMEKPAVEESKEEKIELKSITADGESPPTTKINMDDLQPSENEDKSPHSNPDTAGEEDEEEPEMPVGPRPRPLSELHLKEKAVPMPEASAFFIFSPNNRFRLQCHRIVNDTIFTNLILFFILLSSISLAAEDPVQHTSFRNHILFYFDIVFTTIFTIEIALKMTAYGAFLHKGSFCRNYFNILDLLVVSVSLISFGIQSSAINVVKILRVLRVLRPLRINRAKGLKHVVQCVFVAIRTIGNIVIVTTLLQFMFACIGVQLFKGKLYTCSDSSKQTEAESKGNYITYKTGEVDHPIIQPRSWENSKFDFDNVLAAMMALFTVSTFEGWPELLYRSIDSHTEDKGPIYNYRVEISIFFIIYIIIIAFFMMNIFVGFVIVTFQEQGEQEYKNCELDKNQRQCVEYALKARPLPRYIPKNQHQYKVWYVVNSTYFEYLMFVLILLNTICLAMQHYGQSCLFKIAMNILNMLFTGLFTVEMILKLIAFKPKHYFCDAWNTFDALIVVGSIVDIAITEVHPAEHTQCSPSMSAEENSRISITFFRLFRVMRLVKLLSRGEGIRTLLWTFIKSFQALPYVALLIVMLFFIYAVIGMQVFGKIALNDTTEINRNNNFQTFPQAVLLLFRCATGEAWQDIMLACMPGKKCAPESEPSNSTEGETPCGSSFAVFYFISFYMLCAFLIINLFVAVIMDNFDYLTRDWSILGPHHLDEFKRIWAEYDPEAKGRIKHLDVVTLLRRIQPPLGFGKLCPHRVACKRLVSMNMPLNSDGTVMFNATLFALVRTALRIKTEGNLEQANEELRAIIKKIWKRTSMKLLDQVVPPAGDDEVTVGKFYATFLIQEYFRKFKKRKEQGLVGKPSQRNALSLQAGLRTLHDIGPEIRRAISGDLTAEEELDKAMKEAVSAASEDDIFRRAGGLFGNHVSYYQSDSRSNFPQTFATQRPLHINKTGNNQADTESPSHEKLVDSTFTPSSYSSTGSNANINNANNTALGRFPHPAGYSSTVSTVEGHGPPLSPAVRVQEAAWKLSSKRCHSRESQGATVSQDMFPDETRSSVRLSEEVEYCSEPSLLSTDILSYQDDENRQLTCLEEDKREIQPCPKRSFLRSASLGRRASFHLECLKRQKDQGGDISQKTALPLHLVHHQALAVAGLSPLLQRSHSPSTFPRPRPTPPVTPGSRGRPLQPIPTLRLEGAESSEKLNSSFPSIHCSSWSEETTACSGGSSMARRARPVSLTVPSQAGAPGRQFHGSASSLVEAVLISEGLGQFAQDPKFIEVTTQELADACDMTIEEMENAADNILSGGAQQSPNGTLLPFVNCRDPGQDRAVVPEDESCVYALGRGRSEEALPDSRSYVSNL

[5] = target: Interleukin-1 receptor type 1 (Mus musculus) (UniProt P13504); experiment: IL-1 Eurofins-Panlabs selectivity data (BI); conditions: Compound concentration 10.0 uM
Chain of Interleukin-1 receptor type 1 (Mus musculus) (P13504 whole entry): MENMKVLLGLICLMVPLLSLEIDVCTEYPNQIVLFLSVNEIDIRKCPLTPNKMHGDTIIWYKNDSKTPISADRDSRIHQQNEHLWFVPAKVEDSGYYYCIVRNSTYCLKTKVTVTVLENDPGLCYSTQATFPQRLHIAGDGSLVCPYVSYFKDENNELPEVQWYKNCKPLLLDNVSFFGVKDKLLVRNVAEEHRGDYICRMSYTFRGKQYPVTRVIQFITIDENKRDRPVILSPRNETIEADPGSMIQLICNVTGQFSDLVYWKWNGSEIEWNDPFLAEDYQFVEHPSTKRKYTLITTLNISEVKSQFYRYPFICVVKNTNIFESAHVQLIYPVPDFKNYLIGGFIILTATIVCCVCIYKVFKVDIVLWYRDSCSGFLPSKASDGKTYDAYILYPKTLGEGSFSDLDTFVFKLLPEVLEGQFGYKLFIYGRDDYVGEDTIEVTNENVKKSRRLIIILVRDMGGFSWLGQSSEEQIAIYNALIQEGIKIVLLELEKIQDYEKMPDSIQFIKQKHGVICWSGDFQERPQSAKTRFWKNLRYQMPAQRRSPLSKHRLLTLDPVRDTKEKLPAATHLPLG

[6] = tested on: Tyrosine-protein kinase ABL1 (Homo sapiens), P00519 [Y253F]; experiment: ABL1 Y253F Invitrogen selectivity data (BI); conditions: Compound concentration 3.0 uM
[7] = target: T1, Cytoplasmic tyrosine-protein kinase BMX (Homo sapiens) (UniProt P51813); experiment: BMX Invitrogen selectivity data (BI); conditions: Compound concentration 3.0 uM
T1 sequence (whole entry): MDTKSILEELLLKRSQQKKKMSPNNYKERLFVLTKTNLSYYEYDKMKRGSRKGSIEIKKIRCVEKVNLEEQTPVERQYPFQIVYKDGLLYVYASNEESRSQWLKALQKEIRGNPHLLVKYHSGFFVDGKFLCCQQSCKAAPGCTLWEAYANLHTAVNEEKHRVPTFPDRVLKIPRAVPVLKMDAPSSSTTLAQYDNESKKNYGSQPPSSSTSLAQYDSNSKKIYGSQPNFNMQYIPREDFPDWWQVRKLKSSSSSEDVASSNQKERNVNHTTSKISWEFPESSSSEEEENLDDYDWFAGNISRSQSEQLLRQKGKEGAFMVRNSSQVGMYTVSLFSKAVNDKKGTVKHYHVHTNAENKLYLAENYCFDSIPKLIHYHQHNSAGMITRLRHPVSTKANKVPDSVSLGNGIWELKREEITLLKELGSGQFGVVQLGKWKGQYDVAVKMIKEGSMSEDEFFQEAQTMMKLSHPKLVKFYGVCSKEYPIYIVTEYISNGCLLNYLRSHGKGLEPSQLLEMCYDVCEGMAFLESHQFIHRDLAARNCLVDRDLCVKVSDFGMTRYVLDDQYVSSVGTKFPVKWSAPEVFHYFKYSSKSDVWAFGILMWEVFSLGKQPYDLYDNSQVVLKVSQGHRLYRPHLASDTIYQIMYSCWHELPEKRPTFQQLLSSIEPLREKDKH

[8] = tested on: Epidermal growth factor receptor (Homo sapiens), P00533 [T790M]; experiment: EGFR T790M Invitrogen selectivity data (BI); conditions: Compound concentration 3.0 uM
[9] = target: Glycogen synthase kinase-3 beta (Homo sapiens) (UniProt P49841); experiment: GSK3B Invitrogen selectivity data (BI); conditions: Compound concentration 3.0 uM
[10] = target: NT-3 growth factor receptor (Homo sapiens) (UniProt Q16288); experiment: NTRK3 Invitrogen selectivity data (BI); conditions: Compound concentration 3.0 uM
Chain of NT-3 growth factor receptor (Homo sapiens) (Q16288 32-839 limits assumed): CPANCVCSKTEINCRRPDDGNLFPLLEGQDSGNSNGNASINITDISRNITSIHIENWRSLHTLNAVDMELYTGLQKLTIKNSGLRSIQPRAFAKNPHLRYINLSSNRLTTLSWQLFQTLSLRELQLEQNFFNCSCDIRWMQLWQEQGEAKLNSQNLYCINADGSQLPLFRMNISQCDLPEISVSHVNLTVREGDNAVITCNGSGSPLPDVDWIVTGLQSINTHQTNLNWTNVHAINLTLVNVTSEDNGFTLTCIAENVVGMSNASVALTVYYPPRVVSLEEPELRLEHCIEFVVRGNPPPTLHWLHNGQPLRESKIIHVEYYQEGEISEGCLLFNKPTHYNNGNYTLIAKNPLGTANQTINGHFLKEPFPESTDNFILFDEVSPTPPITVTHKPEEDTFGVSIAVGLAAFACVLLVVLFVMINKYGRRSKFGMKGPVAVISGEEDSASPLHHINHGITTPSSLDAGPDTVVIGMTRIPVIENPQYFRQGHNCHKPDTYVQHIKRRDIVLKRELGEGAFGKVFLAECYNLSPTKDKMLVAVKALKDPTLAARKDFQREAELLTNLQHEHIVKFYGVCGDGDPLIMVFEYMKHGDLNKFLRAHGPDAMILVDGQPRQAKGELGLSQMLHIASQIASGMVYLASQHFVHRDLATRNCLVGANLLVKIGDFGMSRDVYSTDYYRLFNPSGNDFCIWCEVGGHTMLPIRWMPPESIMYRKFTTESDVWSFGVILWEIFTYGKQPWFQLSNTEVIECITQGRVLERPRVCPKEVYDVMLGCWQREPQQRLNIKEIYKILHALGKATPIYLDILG

[11] = target: Serine/threonine-protein kinase PAK 5 (Homo sapiens) (UniProt Q9P286); experiment: PAK7 Invitrogen selectivity data (BI); conditions: Compound concentration 3.0 uM
[12] = target: cAMP-dependent protein kinase catalytic subunit alpha (Homo sapiens) (UniProt P17612); experiment: PRKACA Invitrogen selectivity data (BI); conditions: Compound concentration 3.0 uM
[13] = target: Protein kinase C theta type (Homo sapiens) (UniProt Q04759); experiment: PRKCQ Invitrogen selectivity data (BI); conditions: Compound concentration 3.0 uM
[14] = target: Protein-tyrosine kinase 2-beta (Homo sapiens) (UniProt Q14289); experiment: PTK2B Invitrogen selectivity data (BI); conditions: Compound concentration 3.0 uM
[15] = target: STE20-like serine/threonine-protein kinase (Homo sapiens) (UniProt Q9H2G2); experiment: SLK Invitrogen selectivity data (BI); conditions: Compound concentration 3.0 uM
Chain of STE20-like serine/threonine-protein kinase (Homo sapiens) (Q9H2G2 whole entry, looked up): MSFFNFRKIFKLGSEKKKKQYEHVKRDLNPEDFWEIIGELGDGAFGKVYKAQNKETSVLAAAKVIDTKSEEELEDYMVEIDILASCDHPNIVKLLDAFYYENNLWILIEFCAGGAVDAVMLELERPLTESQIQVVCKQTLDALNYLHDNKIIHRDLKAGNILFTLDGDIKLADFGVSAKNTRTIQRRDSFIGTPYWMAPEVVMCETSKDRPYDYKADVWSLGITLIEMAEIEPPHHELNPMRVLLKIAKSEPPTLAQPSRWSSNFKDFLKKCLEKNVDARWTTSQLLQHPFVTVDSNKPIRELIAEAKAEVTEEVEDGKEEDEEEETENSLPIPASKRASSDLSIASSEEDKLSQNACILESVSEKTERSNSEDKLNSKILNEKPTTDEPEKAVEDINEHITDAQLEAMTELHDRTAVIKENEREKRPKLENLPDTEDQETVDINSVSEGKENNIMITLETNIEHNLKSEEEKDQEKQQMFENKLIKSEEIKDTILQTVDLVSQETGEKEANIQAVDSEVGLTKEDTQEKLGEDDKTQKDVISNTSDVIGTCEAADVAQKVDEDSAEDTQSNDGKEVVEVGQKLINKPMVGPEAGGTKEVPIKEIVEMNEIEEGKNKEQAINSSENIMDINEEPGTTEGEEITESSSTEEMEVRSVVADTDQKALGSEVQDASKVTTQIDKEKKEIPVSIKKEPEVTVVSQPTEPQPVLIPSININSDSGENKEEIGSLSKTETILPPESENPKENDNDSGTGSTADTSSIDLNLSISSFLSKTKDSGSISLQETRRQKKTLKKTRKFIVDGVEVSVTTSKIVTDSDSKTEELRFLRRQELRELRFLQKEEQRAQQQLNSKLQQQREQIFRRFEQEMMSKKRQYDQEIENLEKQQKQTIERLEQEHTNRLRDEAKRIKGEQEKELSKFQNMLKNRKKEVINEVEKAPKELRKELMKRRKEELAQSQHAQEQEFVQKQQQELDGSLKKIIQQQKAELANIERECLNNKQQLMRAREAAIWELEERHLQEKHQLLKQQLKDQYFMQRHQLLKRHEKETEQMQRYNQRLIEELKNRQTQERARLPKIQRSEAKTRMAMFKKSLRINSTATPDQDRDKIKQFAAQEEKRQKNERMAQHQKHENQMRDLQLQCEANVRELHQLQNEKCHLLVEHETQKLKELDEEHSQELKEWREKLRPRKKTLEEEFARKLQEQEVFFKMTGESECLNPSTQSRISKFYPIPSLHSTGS

[16] = target: T2, Serine/threonine-protein kinase 3 (Homo sapiens) (UniProt Q13188); experiment: STK3 Invitrogen selectivity data (BI); conditions: Compound concentration 3.0 uM
T2 sequence (whole entry): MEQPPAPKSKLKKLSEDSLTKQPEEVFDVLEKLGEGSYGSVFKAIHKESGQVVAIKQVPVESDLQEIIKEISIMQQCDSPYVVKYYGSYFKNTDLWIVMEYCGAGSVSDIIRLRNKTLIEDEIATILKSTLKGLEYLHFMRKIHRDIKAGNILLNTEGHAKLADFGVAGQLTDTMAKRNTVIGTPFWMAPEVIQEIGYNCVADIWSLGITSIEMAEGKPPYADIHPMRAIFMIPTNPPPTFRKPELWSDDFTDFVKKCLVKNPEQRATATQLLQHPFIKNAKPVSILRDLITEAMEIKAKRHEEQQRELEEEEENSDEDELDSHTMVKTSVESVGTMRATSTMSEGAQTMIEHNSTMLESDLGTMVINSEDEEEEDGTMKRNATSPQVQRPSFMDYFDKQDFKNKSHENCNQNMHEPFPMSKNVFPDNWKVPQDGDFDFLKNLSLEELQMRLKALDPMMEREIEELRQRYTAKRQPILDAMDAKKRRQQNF

[17] = target: T3, Tyrosine-protein kinase TXK (Homo sapiens) (UniProt P42681); experiment: TXK Invitrogen selectivity data (BI); conditions: Compound concentration 3.0 uM
T3 sequence (whole entry): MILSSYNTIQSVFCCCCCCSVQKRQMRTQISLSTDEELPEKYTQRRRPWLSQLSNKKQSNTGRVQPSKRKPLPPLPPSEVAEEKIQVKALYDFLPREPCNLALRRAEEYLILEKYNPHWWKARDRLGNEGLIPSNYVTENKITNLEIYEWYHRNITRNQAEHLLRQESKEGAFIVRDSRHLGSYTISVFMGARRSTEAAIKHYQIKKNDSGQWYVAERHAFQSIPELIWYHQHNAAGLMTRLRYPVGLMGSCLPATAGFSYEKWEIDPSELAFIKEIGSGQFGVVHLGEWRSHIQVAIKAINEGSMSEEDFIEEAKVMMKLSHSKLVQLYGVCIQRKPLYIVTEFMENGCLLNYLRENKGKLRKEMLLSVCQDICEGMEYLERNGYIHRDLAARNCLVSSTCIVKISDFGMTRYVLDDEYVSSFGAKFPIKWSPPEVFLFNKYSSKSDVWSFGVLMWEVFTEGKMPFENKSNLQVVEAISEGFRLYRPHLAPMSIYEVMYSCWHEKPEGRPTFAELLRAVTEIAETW

## CN(C)C(=O)Cn1cc(-c2nc([C@@](C)(c3ccc(-c4cnc(N)nc4)cc3)C3CC3)no2)cn1 [BI 665915]
[1]
  residual activity: 100%
[2]
  residual activity: 91%
[3]
  residual activity: 97%
[4]
  activity at 10 µM: 98% (not active)
[5]
  residual activity: 99%
[6]
  residual activity: 80%
[7]
  residual activity: 95%
[8]
  residual activity: 104%
[9]
  residual activity: 95.5%
[10]
  residual activity: 93%
[11]
  residual activity: 97%
[12]
  residual activity: 104%
[13]
  residual activity: 93.5%
[14]
  residual activity: 86%
[15]
  residual activity: 99%
[16]
  residual activity: 104%
[17]
  residual activity: 95%
